Entries after “also recorded” stand apart in the source; their conditions may differ.
Legend:
[1] = system: inflammation in the lungs; settings: in vivo; cited from earlier work
[2] = system: hallucinogenic effects in humans; settings: human, cited from earlier work
[3] = system: Rat Induced Pluripotent Stem Cell (iPSC) neurons / cortical neurons from rat embryo; assay: Neurite outgrowth and length in cultured neurons, beta III tubulin immunostaining, High-Content Screening (Neurofit); format: cell-based; settings: day 10
Description: Experiments were conducted to evaluate the neurotrophic effects of several purified tryptamines, H. erinaceum extracts, and the tryptamines combined with selected extracts of H. erinaceum. The tryptamines, baeocystin, norbaeocystin, and norpsilocin, were evaluated at final concentrations of 0.3 μg/mL, 1 μg/mL, 3 μg/mL, and 10 μg/mL. The experiments analyzed the H. erinaceum growth medium (rice or rice and oat hull fiber), the days of cultivation, the extract solvent (water, ethanol, or ethyl acetate), and the final concentration of the extract (31.3 μg/mL, 62.5 μg/mL, 125 μg/mL or 250 μg/mL). Finally, combinations of the three tryptamines and representative H. erinaceum extracts were combined and evaluated.
Experiments were conducted by Neurofit Contract Research Organization in Illkirch-Graffenstaden, France.
The following protocol was performed for each independent culture. Six culture experiments were performed for each condition.
Results are expressed as mean (±Standard Deviation).

[4] = system: PC12 cells (conditioned media from 1321N1 human astrocytoma cells); assay: Neurite outgrowth of PC12 cells treated with conditioned media from 1321N1 cells; format: cell-based, rat; settings: conditioned media from treated 1321N1 cells; n=3
Text: 1321N1 human brain astrocytoma cells are known to excrete neurologically beneficial compounds when stimulated with neurotrophic compounds and fungal extracts including lion's mane (Mori et al., Biological and Pharmaceutical Bulletin, 9: 1727-1732 (2008)). While some fungi have well established mechanisms by which they benefit neurological health, little is known about the role of psilocybin analogs specifically. Generally following the protocol of Mori et al., 2008, 1321N1 human astrocytoma cells were treated with psilocybin analogs, and conditioned media was collected and applied to differentiated rat pheochromocytoma PC12 cells to determine the resulting impact on neurite outgrowth.

[5] = system: nerve growth factor (NGF) protein; assay: ELISA of NGF protein in 1321N1 cells; format: cell-based; settings: human 1321N1 cells; vs vehicle control; n=3; p<0.05
Text: Accordingly, preliminary research has started to reveal the mechanisms by which psilocybin analogs may confer neurotrophic benefits that facilitate neurite outgrowth.
(§1) See Ly et al., “Psychedelics Promote Structural and Functional Neural Plasticity,” Cell Rep.

[6] = system: anti-inflammatory cytokine IL-10; assay: ELISA of IL-10 in 1321N1 cells; format: cell-based; settings: human 1321N1 brain cells
Text: as §1

Compound	inflammation in the lungs [1]	hallucinogenic effect ([2]; 4 mg consumed, anecdotal (Gartz 1991))	hallucinogenic effects ([2]; oral consumption of 10 mg and 20 mg)	Neurite length per neuron, % of control, Avg. ([3]; tryptamine 0.3 μg/mL)	Neurites per neuron, % of control, Avg. ([3]; tryptamine 0.3 μg/mL)	Neurite length per neuron, % of control, Avg. ([3]; tryptamine 1 μg/mL)	Neurites per neuron, % of control, Avg. ([3]; tryptamine 1 μg/mL)	Neurite length per neuron, % of control, Avg. ([3]; tryptamine 3 μg/mL)	Neurites per neuron, % of control, Avg. ([3]; tryptamine 3 μg/mL)	Neurite length per neuron, % of control, Avg. ([3]; tryptamine 10 μg/mL)	Neurites per neuron, % of control, Avg. ([3]; tryptamine 10 μg/mL)	neurite outgrowth induced by conditioned media [4]	expression of NGF protein [5]	expression of IL-10 [6]	neurite outgrowth compared with vehicle control and other treatments (in words) ([3]; at the concentrations tested)
COc1cc(C[C@@H](C)N)c(OC)cc1I [(R)-2,5-dimethoxy-4-iodoamphetamine]	prevent and reverse inflammation	–	–	–	–	–	–	–	–	–	–	–	–	–	–
CNCCc1c[nH]c2cccc(OP(=O)(O)O)c12 [baeocystin, 4-phosphoryloxy-N-methyltryptamine]	–	gentle hallucinogenic experience	did not produce any hallucinogenic effects	119.24%	94.46%	112.34%	93.66%	118.42%	97.18%	109.61%	96.87%	induce neurite outgrowth	–	–	–
NCCc1c[nH]c2cccc(OP(=O)(O)O)c12 [norbaeocystin, 4-phosphoryloxy-tryptamine]	–	–	–	–	–	–	–	–	–	–	–	induce neurite outgrowth	increased expression of NGF protein; also recorded: induces the expression; also recorded: induction of NGF protein	–	–
CNCCc1c[nH]c2cccc(O)c12 [norpsilocin, 4-hydroxy-N-methyl-tryptamine]	–	–	–	107.70%	83.77%	101.13%	87.18%	73.80%	79.36%	7.65%	27.71%	induce neurite outgrowth	–	induces the expression	did not perform better than vehicle control
